Target: T1, hT2R4 (Homo sapiens, UniProt Q9NYW5)
T1 construct: Full-length hT2Rs were isolated by PCR amplification of genomic DNA; expressed in transfected cells; host or cells: HEK-293 cells (PEAKrapid) expressing Gα15
T1 sequence (Q9NYW5 1-299): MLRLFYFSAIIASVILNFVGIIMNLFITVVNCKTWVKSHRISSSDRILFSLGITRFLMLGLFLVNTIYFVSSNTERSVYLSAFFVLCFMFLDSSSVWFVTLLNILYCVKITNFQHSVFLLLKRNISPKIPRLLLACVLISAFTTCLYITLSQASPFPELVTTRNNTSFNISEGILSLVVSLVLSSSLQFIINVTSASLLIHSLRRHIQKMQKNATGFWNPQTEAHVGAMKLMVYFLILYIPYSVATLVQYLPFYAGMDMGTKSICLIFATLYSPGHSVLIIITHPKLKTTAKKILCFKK
Experiment: FURA-2 [Ca2+]i imaging in HEK-293 cells expressing Gα15 and rho-hT2R4
Assay type: cell-based
Conditions: for [Ca2+]i response (FURA-2): 1.5 mM denatonium
Excerpt: In this system, receptor activation leads to increases in intracellular calcium [Ca2+]i, which can be monitored at the single cell level using the FURA-2 calcium-indicator dye (Tsien et al., Cell Calcium 6:145-157 (1985)). To test and optimize Gα15 coupling, two different GPCRs, a Gαi-coupled μ-opioid receptor (Reisine, Neuropharm. 34:463-472 (1995)) and a Gαq-coupled mGluR1 receptor (Masu et al., Nature 349:760-765 (1991)), were used. Transfection of these receptors into HEK-293 cell produced robust, agonist-selective, and Gα15-dependent Ca^2+ responses (FIG. 1).
A number of studies have shown that many GPCRs, in particular sensory receptors, require specific “chaperones” for maturation and targeting through the secretory pathway (Baker et al., Embo J 13:4886-4895 (1994); Dwyer et al., Cell 93:455-466 (1998)). Recently, Krautwurst et al. (Cell 95:917-926 (1998)) generated chimeric receptors consisting of the first 20 amino acids of rhodopsin and various rodent olfactory receptors. These were targeted to the plasma membrane and functioned as odorant receptors in HEK-293 cells. To determine whether rhodopsin sequences can also help target T2Rs to the plasma membra, rhodopsin-T2R chimeras (rho-T2Rs) were constructed. […] Similar results were obtained with 11 human and 16 rodent T2Rs (see below). To further enhance the level of T2R expression, rho-T2Rs were placed under the control of a strong EF-1α promoter, and introduced as episomal plasmids into modified HEK-293 cells expressing Gα15 (pEAKrapid cells).
A bridge overlap PCR extension technique was used to generate rho-T2R chimeras, which contain the first 39 amino acids of bovine rhodopsin in frame with human and rodent T2R coding sequences (Mehta and Singh, Biotechniques 26:1082-1086 (1999). All receptors were cloned into a pEAK10 mammalian expression vector (Edge Biosystems, MD). Modified HEK-293 cells (PEAK^rapid cells; Edge BioSystems, MD) were grown and maintained at 37° C. in UltraCulture medium (Bio Whittaker) supplemented with 5% fetal bovine serum, 100 μg/ml Gentamycin sulphate (Fisher), 1 μg/ml Amphotericin B and 2 mM GlutaMax I (Lifetechnologies). For transfection, cells were seeded onto matrigel coated 24-well culture plates or 35 mm recording chambers. After 24 h at 37° C., cells were washed in OptiMEM medium (Lifetechnologies) and transfected using LipofectAMINE reagent (Lifetechnologies). Transfection efficiencies were estimated by co-transfection of a GFP reporter plasmid, and were typically >70%. Immunofluoresence staining, and activity assays were performed 36-48 h after transfection.
Transfected cells were washed once in Hank's balanced salt solution with 1 mM sodium pyruvate and 10 mM HEPES, pH 7.4 (assay buffer), and loaded with 2 μM FURA-2 AM (Molecular Probes) for 1 h at room temperature. The loading solution was removed and cells were incubated in 200 μl of assay buffer for 1 h to allow the cleavage of the AM ester. For most experiments, 24-well tissue culture plates containing cells expressing a single rho-T2R were stimulated with 200 μl of a 2× tastant solution (see next section). [Ca^2+]i changes were monitored using a Nikon Diaphot 200 microscope equipped with a 10×/0.5 fluor objective with the TILL imaging system (T.I.L.L Photonics GmbH). Acquisition and analysis of the fluorescence images used TILL-Vision software. Generally, [Ca^2+]i was measured for 80-120 s by sequentially illuminating cells for 200 ms at 340 nm and 380 nm and monitoring the fluorescence emission at 510 nm using a cooled CCD camera. The F340/F380 ratio was analyzed to measure [Ca^2+]i.
Kinetics of activation and deactivation were measured using a bath perfusion system. Cells were seeded onto a 150 μl microperfusion chamber, and test solutions were pressure-ejected with a picospritzer apparatus (General Valve, Inc.). Flow-rate was adjusted to ensure complete exchange of the bath solution within 4-5 s. […]

[Ca2+]i response (FURA-2) (absence of Gα15): No increase in [Ca2+]i
[Ca2+]i response (FURA-2) (with Gα15): robust Gα15 dependent responses
increase in [Ca2+]i on tastant stimulation (concentrations as in FIG. 4 (denatonium 5 mM)): increase in [Ca2+]i could be induced
threshold of dose-dependent response (in µM): ~100
SMILES: CC[N+](CC)(CC(=O)Nc1c(C)cccc1C)Cc1ccccc1 [denatonium]
[Ca2+]i response: significant transient increase in [Ca2+]i

— US9817000B2, “Method for identifying compounds that modulate a T2R taste receptor” (The Regents of the University of California, priority 1999, dated 2017)
